Experimental data reported in ChEMBL document CHEMBL1150976, “The selectivity of protein kinase inhibitors: a further update” (Biochem J, 2007).

Legend:
[1] = target: T1, Aurora kinase C (Homo sapiens) (UniProt Q9UQB9); experiment: Percentage Aurora C activity remaining in the presence of 0.1uM inhibitor
T1 sequence (whole entry): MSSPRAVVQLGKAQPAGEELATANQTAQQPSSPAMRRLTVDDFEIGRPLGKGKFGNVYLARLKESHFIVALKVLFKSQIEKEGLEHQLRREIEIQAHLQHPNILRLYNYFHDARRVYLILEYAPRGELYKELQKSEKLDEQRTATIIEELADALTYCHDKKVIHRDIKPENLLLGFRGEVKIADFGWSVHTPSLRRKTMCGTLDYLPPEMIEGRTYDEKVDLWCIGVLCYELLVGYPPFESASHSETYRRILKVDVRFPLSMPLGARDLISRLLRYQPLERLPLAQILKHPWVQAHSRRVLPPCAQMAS

[2] = target: Rho-associated protein kinase 2 (Homo sapiens) (UniProt O75116); experiment: Percentage ROCK2 activity remaining in the presence of 0.1uM inhibitor
[3] = target: T2, Dual specificity tyrosine-phosphorylation-regulated kinase 2 (Homo sapiens) (UniProt Q92630); experiment: Percentage DYRK2 activity remaining in the presence of 0.1uM inhibitor
T2 sequence (whole entry): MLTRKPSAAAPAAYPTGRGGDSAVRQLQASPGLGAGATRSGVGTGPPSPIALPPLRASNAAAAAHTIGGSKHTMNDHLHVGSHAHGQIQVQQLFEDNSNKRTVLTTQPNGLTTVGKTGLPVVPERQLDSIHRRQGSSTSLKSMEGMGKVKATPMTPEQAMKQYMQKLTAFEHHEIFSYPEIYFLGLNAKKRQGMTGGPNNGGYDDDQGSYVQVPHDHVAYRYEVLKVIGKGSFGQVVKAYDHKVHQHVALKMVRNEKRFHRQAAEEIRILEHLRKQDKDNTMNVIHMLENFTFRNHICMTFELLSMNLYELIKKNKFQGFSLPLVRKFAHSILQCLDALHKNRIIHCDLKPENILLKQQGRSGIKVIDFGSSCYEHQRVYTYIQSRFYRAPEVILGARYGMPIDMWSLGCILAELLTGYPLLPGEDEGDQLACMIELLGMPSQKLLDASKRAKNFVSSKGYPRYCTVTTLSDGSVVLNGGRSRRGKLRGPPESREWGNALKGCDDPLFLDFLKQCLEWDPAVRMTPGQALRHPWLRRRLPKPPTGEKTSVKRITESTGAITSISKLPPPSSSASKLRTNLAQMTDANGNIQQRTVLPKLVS

[4] = target: T3, Serine/threonine-protein kinase BRSK2 (Homo sapiens) (UniProt Q8IWQ3); experiment: Percentage BRSK2 activity remaining in the presence of 0.1uM inhibitor
T3 sequence (whole entry): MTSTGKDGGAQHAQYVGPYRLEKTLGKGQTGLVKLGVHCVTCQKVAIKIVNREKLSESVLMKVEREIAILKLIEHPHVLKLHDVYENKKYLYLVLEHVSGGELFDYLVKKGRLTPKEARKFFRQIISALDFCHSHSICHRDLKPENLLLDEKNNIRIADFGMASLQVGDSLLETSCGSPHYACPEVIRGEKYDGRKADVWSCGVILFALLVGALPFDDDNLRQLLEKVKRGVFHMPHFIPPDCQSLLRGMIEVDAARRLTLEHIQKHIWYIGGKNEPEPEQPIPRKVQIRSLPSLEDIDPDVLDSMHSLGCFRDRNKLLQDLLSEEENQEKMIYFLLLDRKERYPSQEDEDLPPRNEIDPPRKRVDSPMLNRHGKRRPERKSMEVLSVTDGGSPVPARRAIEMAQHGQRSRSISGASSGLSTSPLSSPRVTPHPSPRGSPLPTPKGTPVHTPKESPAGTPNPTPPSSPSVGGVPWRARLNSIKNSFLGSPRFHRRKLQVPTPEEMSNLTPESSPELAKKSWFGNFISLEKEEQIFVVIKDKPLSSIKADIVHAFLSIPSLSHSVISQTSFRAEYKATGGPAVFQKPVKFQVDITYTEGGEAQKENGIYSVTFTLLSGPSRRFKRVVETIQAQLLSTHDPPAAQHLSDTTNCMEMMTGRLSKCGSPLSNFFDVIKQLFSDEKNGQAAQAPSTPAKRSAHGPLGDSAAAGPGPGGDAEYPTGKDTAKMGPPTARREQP

[5] = target: Calcium/calmodulin-dependent protein kinase type 1 (Homo sapiens) (UniProt Q14012); experiment: Percentage CaMK1 activity remaining in the presence of 0.1uM inhibitor
[6] = species on record: Homo sapiens; experiment: Percentage PHK activity remaining in the presence of 0.1uM inhibitor
[7] = target: T4, Serine/threonine-protein kinase 3 (Homo sapiens) (UniProt Q13188); experiment: Percentage MST2 activity remaining in the presence of 0.1uM inhibitor
T4 sequence (whole entry): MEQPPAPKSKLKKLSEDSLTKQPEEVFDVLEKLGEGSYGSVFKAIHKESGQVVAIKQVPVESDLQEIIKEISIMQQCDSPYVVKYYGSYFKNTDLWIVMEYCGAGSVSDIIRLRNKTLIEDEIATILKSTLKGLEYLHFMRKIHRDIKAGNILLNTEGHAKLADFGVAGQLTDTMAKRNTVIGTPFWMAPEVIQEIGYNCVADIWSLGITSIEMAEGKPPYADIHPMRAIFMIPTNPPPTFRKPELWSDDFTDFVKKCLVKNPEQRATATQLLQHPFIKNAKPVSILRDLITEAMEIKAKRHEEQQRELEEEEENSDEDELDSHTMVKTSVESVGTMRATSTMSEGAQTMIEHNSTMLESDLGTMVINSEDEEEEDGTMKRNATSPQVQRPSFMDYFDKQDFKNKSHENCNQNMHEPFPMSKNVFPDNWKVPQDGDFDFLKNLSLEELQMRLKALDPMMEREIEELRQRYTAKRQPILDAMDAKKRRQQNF

[8] = target: Mitogen-activated protein kinase 14 (Homo sapiens, UniProt Q16539); experiment: Percentage p38alpha activity remaining in the presence of 0.1uM inhibitor
[9] = target: Serine/threonine-protein kinase Nek6 (Homo sapiens) (UniProt Q9HC98); experiment: Percentage NEK6 activity remaining in the presence of 0.1uM inhibitor
[10] = target: MAP kinase-activated protein kinase 3 (Homo sapiens) (UniProt Q16644); experiment: Percentage MAPKAPK3 activity remaining in the presence of 0.1uM inhibitor
Sequence of MAP kinase-activated protein kinase 3 (Homo sapiens) (Q16644 whole entry, looked up): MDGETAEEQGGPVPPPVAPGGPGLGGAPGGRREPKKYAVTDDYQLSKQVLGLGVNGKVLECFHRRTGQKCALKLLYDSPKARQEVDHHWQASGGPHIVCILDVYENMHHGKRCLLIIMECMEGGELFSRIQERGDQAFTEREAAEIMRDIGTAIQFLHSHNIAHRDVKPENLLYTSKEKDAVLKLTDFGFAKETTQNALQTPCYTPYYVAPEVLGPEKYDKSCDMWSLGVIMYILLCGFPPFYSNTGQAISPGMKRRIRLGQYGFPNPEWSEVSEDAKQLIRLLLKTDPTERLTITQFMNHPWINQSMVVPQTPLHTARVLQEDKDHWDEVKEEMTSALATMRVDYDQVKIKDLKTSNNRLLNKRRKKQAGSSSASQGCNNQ

Sequence of Calcium/calmodulin-dependent protein kinase type 1 (Homo sapiens) (Q14012 whole entry, looked up): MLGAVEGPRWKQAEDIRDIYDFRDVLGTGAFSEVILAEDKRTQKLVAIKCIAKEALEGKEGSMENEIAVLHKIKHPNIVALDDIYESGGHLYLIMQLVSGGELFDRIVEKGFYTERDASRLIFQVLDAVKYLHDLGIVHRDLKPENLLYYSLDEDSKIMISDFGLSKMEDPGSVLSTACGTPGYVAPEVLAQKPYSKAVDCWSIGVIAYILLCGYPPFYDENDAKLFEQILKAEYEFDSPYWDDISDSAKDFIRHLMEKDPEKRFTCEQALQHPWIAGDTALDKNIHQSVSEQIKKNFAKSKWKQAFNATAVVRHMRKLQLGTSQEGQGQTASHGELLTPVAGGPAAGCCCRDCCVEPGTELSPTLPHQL
Sequence of Serine/threonine-protein kinase Nek6 (Homo sapiens) (Q9HC98 whole entry): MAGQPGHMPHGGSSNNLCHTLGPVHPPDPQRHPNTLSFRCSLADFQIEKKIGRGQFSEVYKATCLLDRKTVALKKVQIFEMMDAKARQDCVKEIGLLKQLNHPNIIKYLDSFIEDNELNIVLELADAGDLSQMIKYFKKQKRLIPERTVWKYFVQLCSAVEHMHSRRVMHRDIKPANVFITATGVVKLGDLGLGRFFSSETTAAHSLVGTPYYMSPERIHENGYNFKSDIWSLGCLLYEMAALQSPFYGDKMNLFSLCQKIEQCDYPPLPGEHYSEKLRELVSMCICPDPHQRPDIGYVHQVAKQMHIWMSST
Sequence of Rho-associated protein kinase 2 (Homo sapiens) (O75116 whole entry, looked up): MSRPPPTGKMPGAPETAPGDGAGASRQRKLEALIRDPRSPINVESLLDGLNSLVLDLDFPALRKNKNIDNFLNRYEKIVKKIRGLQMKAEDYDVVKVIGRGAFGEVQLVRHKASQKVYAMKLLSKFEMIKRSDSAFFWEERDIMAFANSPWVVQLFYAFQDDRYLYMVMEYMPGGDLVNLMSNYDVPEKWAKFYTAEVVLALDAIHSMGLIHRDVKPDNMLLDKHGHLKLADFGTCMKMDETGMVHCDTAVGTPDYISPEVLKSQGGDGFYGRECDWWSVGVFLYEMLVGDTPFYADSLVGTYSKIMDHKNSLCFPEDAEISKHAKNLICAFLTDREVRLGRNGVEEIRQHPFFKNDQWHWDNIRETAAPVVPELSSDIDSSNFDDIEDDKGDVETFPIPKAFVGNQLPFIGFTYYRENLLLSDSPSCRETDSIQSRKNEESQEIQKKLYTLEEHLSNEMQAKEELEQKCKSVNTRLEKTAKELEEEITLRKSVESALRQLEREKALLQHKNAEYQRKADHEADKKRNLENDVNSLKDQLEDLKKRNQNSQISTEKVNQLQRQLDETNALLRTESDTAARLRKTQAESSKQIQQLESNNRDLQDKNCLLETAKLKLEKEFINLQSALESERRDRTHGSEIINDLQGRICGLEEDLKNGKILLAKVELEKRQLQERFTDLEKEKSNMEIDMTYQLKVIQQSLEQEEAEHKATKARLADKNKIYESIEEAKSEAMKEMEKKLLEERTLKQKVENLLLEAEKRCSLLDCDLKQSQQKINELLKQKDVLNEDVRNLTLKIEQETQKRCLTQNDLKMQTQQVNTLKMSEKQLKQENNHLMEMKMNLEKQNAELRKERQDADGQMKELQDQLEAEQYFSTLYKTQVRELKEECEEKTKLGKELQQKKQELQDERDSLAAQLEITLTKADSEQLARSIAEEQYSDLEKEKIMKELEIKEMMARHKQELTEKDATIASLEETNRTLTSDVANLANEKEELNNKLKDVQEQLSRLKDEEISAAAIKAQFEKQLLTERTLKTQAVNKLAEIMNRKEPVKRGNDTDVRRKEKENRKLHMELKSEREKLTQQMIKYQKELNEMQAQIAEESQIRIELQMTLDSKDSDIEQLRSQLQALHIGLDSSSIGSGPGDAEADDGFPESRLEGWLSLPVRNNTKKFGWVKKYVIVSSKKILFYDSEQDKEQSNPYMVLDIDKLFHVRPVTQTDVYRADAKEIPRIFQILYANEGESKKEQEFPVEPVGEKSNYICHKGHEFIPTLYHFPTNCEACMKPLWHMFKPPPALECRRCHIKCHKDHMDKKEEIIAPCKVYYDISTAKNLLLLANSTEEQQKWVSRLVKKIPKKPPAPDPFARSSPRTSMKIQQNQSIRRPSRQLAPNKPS
Sequence of Mitogen-activated protein kinase 14 (Q16539 whole entry): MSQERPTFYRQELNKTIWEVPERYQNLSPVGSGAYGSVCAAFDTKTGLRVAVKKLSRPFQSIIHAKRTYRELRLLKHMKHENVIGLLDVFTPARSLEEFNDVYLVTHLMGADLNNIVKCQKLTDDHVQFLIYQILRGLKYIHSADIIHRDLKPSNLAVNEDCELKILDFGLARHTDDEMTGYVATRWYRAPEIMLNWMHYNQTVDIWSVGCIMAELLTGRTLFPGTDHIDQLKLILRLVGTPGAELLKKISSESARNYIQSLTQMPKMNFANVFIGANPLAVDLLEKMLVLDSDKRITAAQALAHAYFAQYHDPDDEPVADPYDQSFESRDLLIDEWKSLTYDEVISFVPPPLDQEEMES

SMILES | Activity [1] | Activity ([2]; filed as antagonist) | Activity ([3]; filed as antagonist) | Activity [4] | Activity [5] | Activity [6] | Activity ([7]; filed as antagonist) | Activity [8] | Activity [9] | Activity [10] | Activity [2] | Activity [3] | Activity [7] | Activity ([1]; filed as antagonist) | Activity ([4]; filed as antagonist) | Activity ([6]; filed as antagonist)
Cc1n[nH]c2ccc(-c3cncc(OC[C@@H](N)Cc4c[nH]c5ccccc45)c3)cc12 | 92% | 8% | 26% | 79% | 77% | 54% | 29% | 92% | 95% | 96% |  |  |  |  |  | 
CC(C)[C@H](CO)Nc1nc(Nc2cccc(Cl)c2)c2ncn(C(C)C)c2n1 [PURVALANOLA] | 85% |  |  | 76% | 99% | 85% |  | 95% | 91% | 88% | 93% | 91% | 60% |  |  | 
Cn1c2ccccc2c2c3c(c4c5ccccc5n(CCC#N)c4c21)CNC3=O |  |  | 49% |  | 98% |  | 3% | 100% | 96% | 95% |  |  |  | 44% | 46% | 1%
CC(C)CCN1c2nc(Nc3cc(F)c(O)c(F)c3)ncc2N(C)C(=O)C1C (stereo unspecified) | 76% |  |  | 78% | 103% | 114% | 41% | 88% | 115% | 108% | 84% | 91% |  |  |  | 
CN(C)C[C@@H]1CCn2cc(c3ccccc32)C2=C(C(=O)NC2=O)c2cn(c3ccccc23)CCO1 | 92% |  |  |  |  |  | 37% |  | 93% | 90% | 94% | 85% |  |  |  | 49%
Cn1cc(C2=C(c3cn(CCCSC(=N)N)c4ccccc34)C(=O)NC2=O)c2ccccc21 | 77% |  |  | 65% | 91% |  |  | 102% | 97% | 90% | 88% | 90% | 80% |  |  | 46%
O=C(NCCCNc1nc(Nc2cccc(NC(=O)N3CCCC3)c2)ncc1I)c1cccs1 |  | 28% |  |  | 71% | 62% |  | 87% | 98% | 102% |  | 76% | 92% | 9% | 45% | 
